# Results as given in patent publication US5089623A, “Certain imidate insecticides” (Imperial Chemical Industries Plc, priority 1990, dated 1992).
# Columns and labels:
# Format in all cases: in vivo
# [1] = tested on: Housefly [Musca domestica]; assay: Housefly insecticidal test (HF); settings: per 25 female houseflies, 48 hours
# [2] = tested on: Tobacco Budworm [Heliothis virescens (Fabricius)] eggs; assay: Tobacco budworm egg test (TBW-E); settings: percent in solution
# Excerpt: Eggs: Paper towel patches of 2-day old eggs of the tobacco budworm were dipped in acetone solutions of the test compound and placed in petri dishes containing a portion of larval rearing medium. […] Test concentrations ranged from 0.1% downward.
# [3] = tested on: Cabbage Looper [Trichoplusia ni (Hubner)]; assay: Cabbage looper test (CL); settings: second-instar larvae, 3-5 days, percent in solution
smiles,measurement,setting,value
Cc1ccc(Oc2cccc(COC(=Nc3ccc(F)c(Cl)c3)C(C)C)n2)cc1 [Compound 494],LC50 HF,[1],34 µg
same,LC50 TBW E,[2],> 0.1%
same,LC50 CL,[3],0.003%
Cc1cc(N=C(OCc2cccc(Oc3ccc(F)cc3)c2)C(C)C)ccc1F [Compound 236],LC50 HF,[1],7 µg
same,LC50 TBW E,[2],0.06%
same,LC50 CL,[3],0.0018%
CC1CC1C(=Nc1ccc(Cl)cc1)OCc1cccc(Oc2ccccc2)c1 (stereo not drawn) [Compound 15],LC50 HF,[1],> 100 µg
same,LC50 TBW E,[2],> 0.01%
same,LC50 CL,[3],0.025%
Cc1ccc(Cl)cc1N=C(OCc1cccc(Oc2ccccc2)c1)C(C)C [Compound 263],LC50 HF,[1],> 100 µg
same,LC50 TBW E,[2],> 0.1%
same,LC50 CL,[3],0.05%
CC(C)C(=Nc1cccc(SC(F)(F)F)c1)OCc1cccc(Oc2ccc(F)cc2)c1 [Compound 272],LC50 HF,[1],> 100 µg
same,LC50 TBW E,[2],> 0.1%
same,LC50 CL,[3],0.0024%
CC(C)C(=Nc1ccc(F)cc1)OCc1cccc(Oc2ccc(F)cc2F)c1 [Compound 206],LC50 HF,[1],50 µg
same,LC50 TBW E,[2],> 0.1%
same,LC50 CL,[3],0.0017%
CC(C)C(=Nc1cccc(C(F)(F)F)c1)OCc1cccc(Oc2cccc(F)c2)c1 [Compound 192],LC50 HF,[1],25 µg
same,LC50 TBW E,[2],0.07%
same,LC50 CL,[3],0.0012%
CCOC(=O)c1cccc(N=C(OCc2cccc(Oc3ccccc3)c2)C(C)(C)C)c1 [Compound 168],LC50 HF,[1],> 100 µg
same,LC50 TBW E,[2],> 0.1%
same,LC50 CL,[3],0.1%
CSc1ccc(N=C(OCc2cccc(Oc3ccccc3)c2)C(Cl)Cl)cc1 [Compound 141],LC50 HF,[1],35 µg
same,LC50 TBW E,[2],> 0.1%
same,LC50 CL,[3],< 0.1%
CCCCc1ccc(N=C(OCc2cccc(Oc3ccccc3)c2)C(C)C)cc1 [Compound 152],LC50 HF,[1],> 100 µg
same,LC50 TBW E,[2],> 0.1%
same,LC50 CL,[3],0.009%
Cc1cc(N=C(OCc2cccc(Oc3ccccc3)c2)C(C)C)ccc1Br [Compound 127],LC50 HF,[1],58 µg
same,LC50 TBW E,[2],0.04%
same,LC50 CL,[3],0.01%
CCCCC(=Nc1ccc(F)c(Cl)c1)OCc1cccc(Oc2ccccc2)c1 [Compound 121],LC50 HF,[1],> 100 µg
same,LC50 TBW E,[2],> 0.1%
same,LC50 CL,[3],0.1%
CC(C)(F)C(=Nc1cccc(C(F)(F)F)c1)OCc1cccc(Oc2ccc(F)cc2)c1 [Compound 319],LC50 HF,[1],44 µg
same,LC50 TBW E,[2],> 0.1%
same,LC50 CL,[3],0.0007%
CC(C)C(=Nc1ccc(C(C)(C)C)c(Cl)c1)OCc1cccc(Oc2ccc(F)cc2)c1 [Compound 308],LC50 HF,[1],> 100 µg
same,LC50 TBW E,[2],> 0.1%
same,LC50 CL,[3],0.009%
CC(C)C(=Nc1ccc(C(C)(C)C)cc1)OCc1cccc(Oc2ccc(F)cc2)c1 [Compound 235],LC50 HF,[1],> 100 µg
same,LC50 TBW E,[2],> 0.1%
same,LC50 CL,[3],0.004%
CC(Br)C(=Nc1ccc(F)c(Cl)c1)OCc1cccc(Oc2ccccc2)c1 (stereo not drawn) [Compound 118],LC50 HF,[1],18 µg
same,LC50 TBW E,[2],> 0.1%
same,LC50 CL,[3],0.0013%
CCSc1ccc(N=C(OCc2cccc(Oc3ccccc3)c2)C(C)C)cc1Cl [Compound 103],LC50 HF,[1],> 100 µg
same,LC50 TBW E,[2],> 0.1%
same,LC50 CL,[3],0.015%
CC(C)(F)C(=Nc1ccc(F)c(F)c1)OCc1cccc(Oc2ccc(F)cc2)c1 [Compound 318],LC50 HF,[1],19 µg
same,LC50 TBW E,[2],> 0.1%
same,LC50 CL,[3],0.0007%
CC(C)C(=Nc1ccc(F)c(Cl)c1)OC(C)c1cccc(Oc2ccccc2)n1 (stereo not drawn) [Compound 498],LC50 HF,[1],49 µg
same,LC50 TBW E,[2],> 0.1%
same,LC50 CL,[3],0.002%
CC(C)C(=Nc1ccc2c(c1)OC(C)(C)O2)OCc1cccc(Oc2ccc(Cl)cc2)n1 [Compound 468],LC50 HF,[1],50 µg
same,LC50 TBW E,[2],> 0.1%
same,LC50 CL,[3],> 0.1%
COc1cc(N=C(OCc2cccc(Oc3ccccc3)c2)C(C)C)cc(OC)c1OC [Compound 248],LC50 HF,[1],40 µg
same,LC50 TBW E,[2],> 0.1%
same,LC50 CL,[3],0.02%
CC(C)C(=Nc1cccc(C(F)(F)F)c1)OC(C)c1cccc(Oc2ccccc2)n1 (stereo not drawn) [Compound 499],LC50 HF,[1],63 µg
same,LC50 TBW E,[2],> 0.1%
same,LC50 CL,[3],0.0024%
CC(C)C(=Nc1ccc(F)c(Cl)c1)OCc1cccc(Oc2ccc(C(F)(F)F)cc2)c1 [Compound 247],LC50 HF,[1],> 100 µg
same,LC50 TBW E,[2],> 0.1%
same,LC50 CL,[3],0.009%
COc1ccc(C)cc1N=C(OCc1cccc(Oc2ccccc2)c1)C(C)C [Compound 150],LC50 HF,[1],89 µg
same,LC50 TBW E,[2],> 0.1%
same,LC50 CL,[3],0.01%
CC(C)C(=Nc1ccc(C(C)(C)C)cc1)OCc1cccc(Oc2ccccc2)n1 [Compound 496],LC50 HF,[1],> 100 µg
same,LC50 TBW E,[2],> 0.1%
same,LC50 CL,[3],0.006%
CC(C)C(=Nc1cccc(C(F)(F)F)c1)OCc1ccc(OCc2ccccc2)cc1 [Compound 476],LC50 HF,[1],> 100 µg
same,LC50 TBW E,[2],> 0.1%
same,LC50 CL,[3],0.015%
COc1cc(N=C(OCc2cccc(Oc3ccccc3)c2)C(C)C)c(OC)cc1Cl [Compound 99],LC50 HF,[1],> 100 µg
same,LC50 TBW E,[2],> 0.1%
same,LC50 CL,[3],0.016%
CC(C)C(=Nc1cccc(Cl)c1)OCc1cccc(Oc2ccc(Br)cc2)c1 [Compound 260],LC50 HF,[1],22 µg
same,LC50 TBW E,[2],> 0.1%
same,LC50 CL,[3],0.00075%
CC(C)C(=Nc1ccc2c(c1)OCO2)OCc1c(F)c(F)c(F)c(F)c1F [Compound 464],LC50 HF,[1],> 100 µg
same,LC50 TBW E,[2],> 0.1%
same,LC50 CL,[3],0.08%
CC(C)C(=Nc1ccc(C(C)(C)C)cc1)OCc1cccc(Oc2ccc(Cl)cc2)n1 [Compound 497],LC50 HF,[1],> 100 µg
same,LC50 TBW E,[2],> 0.1%
same,LC50 CL,[3],0.0075%
CC(C)c1ccc(N=C(OCc2cccc(Oc3ccccc3)c2)C(C)(C)C)cc1 [Compound 165],LC50 HF,[1],> 100 µg
same,LC50 TBW E,[2],> 0.1%
same,LC50 CL,[3],0.007%
CC(C)C(=Nc1cccc(F)c1)OCc1cccc(Oc2ccc(F)cc2)c1 [Compound 200],LC50 HF,[1],7.5 µg
same,LC50 TBW E,[2],0.1%
same,LC50 CL,[3],0.00075%
Cc1ccc(C)c(N=C(OCc2cccc(Oc3ccccc3)c2)C(C)C)c1 [Compound 250],LC50 HF,[1],38 µg
same,LC50 TBW E,[2],0.03%
same,LC50 CL,[3],0.004%
CC(C)C(=Nc1cc(C(F)(F)F)cc(C(F)(F)F)c1)OCc1cccc(Oc2ccccc2)c1 [Compound 78],LC50 HF,[1],> 100 µg
same,LC50 TBW E,[2],> 0.1%
same,LC50 CL,[3],0.0025%
CC(C)C(=Nc1ccc2c(c1)OCO2)OCc1cccc(Oc2ccccc2F)c1 [Compound 183],LC50 HF,[1],10 µg
same,LC50 TBW E,[2],0.075%
same,LC50 CL,[3],0.00075%
CC(C)C(=Nc1cc(Cl)c(Cl)cc1Cl)OCc1cccc(Oc2ccccc2)c1 [Compound 18],LC50 HF,[1],> 100 µg
same,LC50 TBW E,[2],0.09%
same,LC50 CL,[3],0.008%
CC(C)(C)C(=Nc1ccc(Br)c(Cl)c1)OCc1cccc(Oc2ccccc2)c1 [Compound 106],LC50 HF,[1],> 100 µg
same,LC50 TBW E,[2],> 0.1%
same,LC50 CL,[3],0.014%
COc1ccc(Oc2cccc(COC(=Nc3ccc(F)cc3)C(C)C)c2)cc1 [Compound 220],LC50 HF,[1],85 µg
same,LC50 TBW E,[2],> 0.1%
same,LC50 CL,[3],0.007%
CC(C)C(=Nc1cccc(I)c1)OCc1cccc(Oc2ccccc2)c1 [Compound 136],LC50 HF,[1],9 µg
same,LC50 TBW E,[2],0.08%
same,LC50 CL,[3],0.004%
Cc1c(COC(=Nc2ccc(Cl)cc2)C(C)C)cccc1-c1ccccc1 [Compound 455],LC50 HF,[1],> 100 µg
same,LC50 TBW E,[2],> 0.1%
same,LC50 CL,[3],0.0025%
CC(C)C(=Nc1ccc(Cl)cc1)OCc1coc(Cc2ccccc2)c1 [Compound 484],LC50 HF,[1],16 µg
same,LC50 TBW E,[2],> 0.1%
same,LC50 CL,[3],0.003%
CC(C)C(=Nc1ccc2c(c1)OCO2)OCc1cccc(Oc2ccccc2)n1 [Compound 467],LC50 HF,[1],6 µg
same,LC50 TBW E,[2],0.04%
same,LC50 CL,[3],0.003%
CC(C)c1ccc(N=C(OCc2cccc(Oc3ccc(F)cc3)c2)C(C)(C)C)cc1 [Compound 322],LC50 HF,[1],> 100 µg
same,LC50 TBW E,[2],> 0.1%
same,LC50 CL,[3],0.007%
CC(C)C(=Nc1cccc(OC(F)(F)C(F)F)c1)OCc1cccc(Oc2ccc(F)cc2)c1 [Compound 288],LC50 HF,[1],> 100 µg
same,LC50 TBW E,[2],> 0.1%
same,LC50 CL,[3],0.0015%
CC(C)C(=Nc1ccc(C#N)cc1)OCc1cccc(Oc2cccc(Cl)c2)c1 [Compound 208],LC50 HF,[1],27 µg
same,LC50 TBW E,[2],> 0.1%
same,LC50 CL,[3],0.0035%
CC(C)(C)C(=Nc1ccc(Cl)c([N+](=O)[O-])c1)OCc1cccc(Oc2ccccc2)c1 [Compound 105],LC50 HF,[1],> 100 µg
same,LC50 TBW E,[2],> 0.1%
same,LC50 CL,[3],0.018%
CC(C)(C)C(=Nc1ccc(F)cc1)OCc1cccc(Oc2ccccc2)c1 [Compound 48],LC50 HF,[1],> 100 µg
same,LC50 TBW E,[2],> 0.05%
same,LC50 CL,[3],0.03%
CC(C)C(=Nc1ccc(F)c(F)c1)OCc1cccc(Oc2ccc(Br)cc2)c1 [Compound 275],LC50 HF,[1],21 µg
same,LC50 TBW E,[2],0.045%
same,LC50 CL,[3],0.00012%
CC(C)(Cl)C(=Nc1ccc(F)c(Cl)c1)OCc1cccc(Oc2ccc(F)cc2)c1 [Compound 224],LC50 HF,[1],> 100 µg
same,LC50 TBW E,[2],> 0.1%
same,LC50 CL,[3],0.001%
CC(C)C(=Nc1ccc(Br)c(Br)c1)OCc1cccc(Oc2ccc(F)cc2)c1 [Compound 251],LC50 HF,[1],25 µg
same,LC50 TBW E,[2],0.06%
same,LC50 CL,[3],0.0005%
CC(C)C(=Nc1ccc(Cl)cc1)OCc1cccc(Oc2ccc(Br)cc2)c1 [Compound 237],LC50 HF,[1],50 µg
same,LC50 TBW E,[2],0.075%
same,LC50 CL,[3],0.0006%
CC(C)C(=Nc1ccc(F)c(Cl)c1)OCc1cccc(Oc2ccncc2)c1 [Compound 470],LC50 HF,[1],25 µg
same,LC50 TBW E,[2],> 0.1%
same,LC50 CL,[3],0.02%
CC(C)C(=Nc1ccc(F)c(Cl)c1)OCc1ccc(Cl)c(Oc2ccc(F)cc2)c1 [Compound 448],LC50 HF,[1],16 µg
same,LC50 TBW E,[2],0.03%
same,LC50 CL,[3],0.003%
